The text below walks through data of PubChem BioAssay (NCI).

Holding throughout (experiment): NCI tumour cell line growth inhibition, 48 h
In experiment [1] the test system is DLD-1 colon.
The subject of experiment [2] is RXF-631 renal.
Experiment [3] has as its system XF 498 CNS.
The subject of experiment [4] is HOP-18 NSCLC.
For experiment [5], the system named is DMS 114 small cell lung.
Experiment [6] concerns MDA-MB-231 breast.
For experiment [7], the system named is MDA-MB-435.
Experiment [8] relates to MDA-N.
For experiment [9], the system named is P388/ADR leukemia.
Experiment [10] relates to P388 leukemia.
Experiment [11] has as its system SN12K1 renal.
Experiment [12] has as its system T-47D breast.

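Test compounds were applied to cells in 96-well plates for 48 hours at 5 doses. The concentration for 50% growth inhibition is given as GI50. TGI: total growth inhibition.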

As to `CNC(=O)CN(CC(N)=O)C(N)=O`, the TGI in experiment [1], in experiment [2] and in [3] was more than 100 µM each time.

For the molecule `CC1CC[C@]2(C(=O)O)CCC3(C)C(=CCC4[C@@]5(C)CC[C@H](OS(=O)(=O)c6ccccc6)C(C)(C)C5CC[C@]43C)[C@@H]2[C@H]1C` (some centres undefined), the TGI in experiment [4], in experiment [1], in experiment [5], in experiment [2] and in experiment [3] was more than 100 µM throughout.

With `COc1ccc(OC)c2c3c(ccc12)C(c1ccccc1)OC3=O` (centres undefined), the TGI in [4], in [1] and in experiment [5] was more than 100 µM in each case.

For `COc1nc(NC2OC(COC(C)=O)C(OC(C)=O)C(OC(C)=O)C2OC(C)=O)c(-c2csc(N)n2)c(=O)n1C` (centres undefined), the TGI in experiment [4], in experiment [1] and in experiment [5] was more than 100 µM each time.

As for `CCOc1ccc(C(CN2CCOCC2)C(C)=O)cc1OC` (centres undefined), the TGI turned out to be 30.2 µM in experiment [4], 27.9 µM in [1], 34 µM in [5] and 40.8 µM in experiment [3].

Consider `C[N+](C)(C)CC1CCCC(C[N+](C)(C)C)C1O` (centres undefined), for which the TGI in experiment [4], in experiment [1], in experiment [5] and in experiment [2] was more than 100 µM in each case.

Turning to `CC(=O)C1C(=O)N(C(C)C)C[C@@H]2CCC(=O)C[C@H]12` (some centres undefined), the TGI in experiment [1], in experiment [5], in [2] and in [3] was more than 100 µM throughout.

For `Cc1cc(Cl)cc2c1NC(=O)C2=O` (tested in a mixture with another compound), the TGI in [4] was more than 100 µM; in [1], more than 100 µM; in experiment [5] it was 72.1 µM; in experiment [3] it was 62.4 µM.

With `COc1ccc(CCc2cc(OC)c(OC)c(OC)c2)cc1`, the TGI was 15.7 µM in experiment [6]; more than 100 µM in experiment [4]; more than 100 µM in experiment [1]; 0.323 µM in experiment [5]; 4.45 µM in experiment [2]; 0.0345 µM in experiment [7]. Further, the TGI in [3] came to 20.6 µM; in experiment [8], 0.021 µM.

As to `Cc1ccc(NC(=O)CC(=O)N2N=C(N(CCC#N)c3cccc(C)c3)CC2c2ccccc2)cc1` (centres undefined), the TGI in experiment [4], in experiment [1] and in [5] was more than 100 µM each time.

For the molecule `COc1cc2c(c(OC)c1OC)-c1ccc(SC)c(=O)cc1[C@@H](NC(=O)c1ccc(Cl)cc1)CC2`, the TGI in experiment [1] and in [2] was more than 100 µM in each case.

For the molecule `S=c1nc(-c2ccnc(-c3nc(=S)[nH][nH]3)c2)[nH][nH]1`, the TGI in experiment [4], in experiment [1], in experiment [5] and in experiment [3] was more than 100 µM each time.

As to `COC(=O)/C(=N/NC(N)=O)C(C(=O)OC)C(=O)C(=O)Nc1ccc(Cl)cc1` (centres undefined), the TGI in experiment [4], in [1], in [5] and in [3] was more than 100 µM in each case.

`COc1ccc2nc3ccccc3c(NCCCCN(C)CCCl)c2c1`: the TGI in experiment [1] is 0.964 µM; in experiment [2], 0.367 µM; in [7], 0.325 µM; in [3], 0.293 µM.

In the case of `COc1ccccc1NC(=O)C(CC(C(=O)Nc1ccccc1OC)/C(C)=N/Nc1ccc([N+](=O)[O-])cc1[N+](=O)[O-])/C(C)=N/Nc1ccc([N+](=O)[O-])cc1[N+](=O)[O-]` (centres undefined), the TGI in [4], in [1], in [2] and in experiment [3] was more than 100 µM throughout.

For `C[C@@H]1C[C@]2(C[C@@H](C)C3[C@@H](CC4(C)[C@@H]5CCC6C(C)(C)OC(=O)C=C[C@]67C[C@@]5(CC[C@]34C)OO7)O2)OC1=O` (some centres undefined), the TGI in experiment [4] is more than 100 µM; in [1], more than 100 µM; in experiment [5] it was more than 100 µM; in experiment [3], 73.9 µM.

For the molecule `COC(=O)CC(C(C(C)=O)C(=O)OCc1ccccc1)N1C(=O)OCC1c1ccccc1` (centres undefined), the TGI in experiment [1], in experiment [5], in experiment [2] and in [3] was more than 100 µM each time.

For the molecule `COc1cc2cc3c4c(cc(OC)c(OC)c4c2cc1OC)CCN3C(=O)CCC(=O)NCCCN(C)C`, the TGI is more than 100 µM in experiment [4], 30.9 µM in experiment [1], more than 100 µM in experiment [5] and more than 100 µM in [3].

Consider `O=C1c2ccccc2C(=O)c2nc3ccc(Cl)cc3cc21`, for which the TGI in experiment [1], in experiment [5], in experiment [2] and in experiment [3] was more than 100 µM each time.

Turning to `CCSC(SCC)=C1C(=O)N(c2ccccc2)N=C1C`, the TGI in experiment [4] turned out to be 29.4 µM; in [1] it was 26.8 µM; in [3], 22.7 µM.

As for `O=C(Nc1cccc(NC(=O)c2cc(=O)c3ccccc3o2)n1)c1cc(=O)c2ccccc2o1`, the TGI is more than 100 µM in experiment [1], 92 µM in experiment [5] and more than 100 µM in [2].

Regarding `Nc1ccc(S(=O)(=O)Nc2cnc3c(Cl)cccc3n2)cc1`, the GI50 is 78.1 µM in experiment [6], 31.5 µM in [7], more than 66.9 µM in experiment [8] and 48.2 µM in experiment [12]. In addition, the TGI in [6] is more than 750 µM; in experiment [4], more than 750 µM; in experiment [9] it was more than 750 µM; in [1], more than 655 µM; in [10], more than 750 µM; in [5] it was 202 µM. Besides, the TGI in experiment [11] is 472 µM; in experiment [7], more than 750 µM; in experiment [3] it was 719 µM; in experiment [8] it was more than 566 µM; in experiment [12], more than 750 µM.

In the case of `COc1cc(/C=C(\C#N)C(N)=C(C#N)C#N)cc(O)c1O`, the TGI in experiment [6], in experiment [1], in experiment [5], in experiment [7], in experiment [3] and in [8] was more than 100 µM each time. The molecule also displayed a TGI in [12] of more than 100 µM.

For `C[C@]12CC[C@H](OC3CCCCO3)CC1=CC[C@@H]1C2CC[C@]2(C)/C(=N/O)CCC12` (some centres undefined), the TGI in experiment [4] is 30.5 µM; in experiment [1], more than 100 µM; in experiment [5], 37.9 µM; in experiment [3], 68.6 µM.

In the case of `N[C@@H]1CCCC[C@@H]1N.O=P([O-])([O-])CN(CP(=O)([O-])[O-])CP(=O)([O-])[O-].[Pt+2]`, the GI50 in [4], in experiment [1] and in [3] was more than 100 µM each time. Besides, the TGI in experiment [4], in experiment [1] and in [3] was more than 100 µM in each case.

As to `COc1ccc(S(=O)(=O)N(C)CC(=O)O)cc1`, the TGI in experiment [4], in experiment [1], in experiment [2] and in [3] was more than 100 µM throughout.

Turning to `FC1OC2OC1C(OCc1ccccc1)C(OCc1ccccc1)C2OCc1ccccc1` (centres undefined), the TGI in [4] is 96.4 µM; in experiment [1] it was more than 100 µM; in [5], more than 100 µM; in experiment [2], more than 100 µM; in [3], more than 100 µM.

On to `CN(C=O)/C=C/c1cc(O)ccc1O`, for which the TGI in [4] was 31.4 µM; in experiment [1], 39.4 µM; in experiment [5] it was more than 100 µM; in experiment [2], more than 100 µM.

As for `COc1cccc(NC(=O)C(=O)C(C(C)=O)c2nc3ccc(Cl)cc3[nH]c2=O)c1` (centres undefined), the TGI in experiment [4], in experiment [1], in experiment [5] and in experiment [2] was more than 100 µM each time.

As for `CCOC(=O)[C@H]1Nc2ccccc2C2c3ccccc3CC21` (some centres undefined), the TGI in experiment [1], in experiment [5], in [2] and in [3] was more than 100 µM each time.
